Reference: publication PMC7938888, “Antidepressant drugs act by directly binding to TRKB neurotrophin receptors” (Cell, 2021)

How the values were obtained:
[1] = tested on: E18 cortical cells; assay: Cell viability (CellTiterGlo) of cortical cells; format: cell-based, rat; conditions: pravastatin 2 μM/5 days; CHOL 20 μM or BDNF 10 ng/ml, 5 days
Procedure: The cell viability assay was performed using CellTiterGlo (#G7571; Promega) according to manufacturer’s instructions. Briefly, equal amounts of medium and the mixture of regents A and B were added to the E18 cortical cells (DIV8) cultivated in clear bottom 96-well plates and incubated for 40min. The luminescence was analyzed in a plate reader.

[2] = tested on: TRKB autophosphorylation (TRKB:pY); assay: TRKB:pY ELISA in cultured cortical cells; format: cell-based, rat; conditions: for effect on TRKB phosphorylation (pTRKB) by BDNF: BDNF 10 ng/mL, primary cortical neurons
Procedure: (§1) The TRKB:pY (phosphorylated TRKB), TRKB:PLC-γ1, PLC-γ1:pTRKB.Y816 interactions and were determined by ELISA, based on the general method described in literature ([Antila et al., 2014]; [Fred et al., 2019]), with minor adjustments. Briefly, white 96-well plates (OptiPlate 96F-HB, Perkin Elmer) were coated with capturing anti-TRKB or PLC-γ1 antibody (1:1000) in carbonate buffer (pH = 9.8) overnight (ON) at 4°C. Following a blocking step with 2%BSA in TBS-T (2 h, RT), samples were incubated ON at 4°C. The incubation with antibody against pTRKB.Y816, PLC-γ1 or pY (1:2000, ON, 4°C) was followed by HRP-conjugated anti-Rb IgG (1:5000, 2h, RT) or HRP-conjugated streptavidin (1:10000, 2h, RT). Finally, the chemiluminescent signal generated by the reaction with ECL was analyzed in a plate reader (Varioskan Flash, Thermo Scientific).

[3] = tested on: TRKB:PLC-γ1 interaction; assay: TRKB:PLC-γ1 interaction ELISA in cortical cells; format: cell-based, rat; conditions: rat cortical cells
In short: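 Sandwich ELISA on cultured cortical cell lysates: plates coated with anti-TRKB or anti-PLC-γ1 capture antibody, samples bound overnight at 4°C, then detected with anti-pY or anti-PLC-γ1 antibody plus HRP-conjugated secondary or streptavidin. Read-out is ECL chemiluminescence.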

[4] = tested on: mice; assay: Forced swimming test (FST); format: in vivo, mouse; conditions: FLX 15 mg/kg for 21 days, KET 10 mg/kg i.p. 2 h before
Procedure: Forced swimming test: animals (adult male and female mice, 18-22 weeks old) were placed in 5l glass beaker cylinders (19cm diameter, with 20cm water column) for 6min. The immobility was assessed in the last 4min of the session ([Diniz et al., 2018]). The water was changed between each test. After swimming, animals were towel-dried and kept in a warmed cage before returning to their home cages. Test was videotaped and analyzed by a trained observer blind to treatment.

[5] = tested on: mice; assay: Contextual fear conditioning and extinction; format: in vivo, mouse
Procedure: Contextual fear conditioning: this test was modified from previous studies ([Karpova et al., 2011]). Briefly, adult male and female mice (18-22 weeks old) were conditioned to 5 scrambled foot shocks (0.6mA/2 s) during the 8 min session (arena: 23 × 23 × 35cm) under constant illumination (100 lux). During the extinction trials, the animals were exposed to the same context where the shocks were delivered and the time spent in freezing during the 8 min session was automatically determined by the software (TSE Systems, Germany).

[6] = tested on: pTRKB.Y816; format: cell-based, rat; conditions: 10 μM/15 min
Procedure: as §1
The levels of total and phosphorylated TRKB at Y515 or Y816 in MG87.TRKB cells, challenged with BDNF, as well as the levels of PLCg1 and pTRKB.Y816 were measured by western-blotting ([Rantamäki et al., 2007]).

[7] = tested on: GFP-TRKB.Y433F; assay: FRAP of GFP-TRKB.Y433F in dendritic spines of hippocampal neurons; format: cell-based, rat; conditions: BDNF 20 ng/mL, FLX 1 μM, KET 10 μM; 15 min
Procedure: For the fluorescence recovery after photobleaching (FRAP) experiments, E18 rat embryo hippocampal cells were plated onto glass coverslips coated with poly-L-lysine (Sigma-Aldrich) in 4-well cell culture plates at a density of 200.000 cells/well. The cultures were incubated at +37°C in serum-free Neurobasal medium (supplemented with 2% B27, 1% L-glutamine and 1% ampicillin) for approximately 2 weeks (DIV 14-16), renewing half of the growth media weekly. Then, they were transfected with Lipofectamine 2000 (Invitrogen) in order to overexpress GFP-tagged TRKB constructs (TRKB.WT or TRKB.Y433F). The cultures were incubated with the transfection mix (per well: 50ul neurobasal medium, 1ul Lipofectamine 2000, 1ug plasmid DNA) in serum-free media for 1.5 hours, followed by 3x medium washes and returned to the original growth medium after that. The cells were left at +37°C o/n to overexpress the constructs ([Koskinen et al., 2012]). Next day, FRAP was performed with a confocal microscope (Zeiss LSM 710, Carl Zeiss AG) adapted for live cell imaging with a chamber set at +37°C and 5%CO2 (Zeiss Temp Module system, Carl Zeiss AG). Coverslips with the cultured hippocampal neurons were carefully transferred to 35mm Petri dishes with warm HBSS medium without phenol red or serum to avoid sources of background fluorescence. After a 10 minutes adaptation period in the microscope chamber to avoid focus drift caused by temperature fluctuations of the stage and objective, dendritic shafts or spines (spine head diameter = ∼1um) were localized with a 63x/0.90 NA dipping water objective. Picture format was 512x512 pixels. The nominal speed to capture images was set to 9 (pixel dwell 3.15 μseconds, taking approximately 0.5 s to finish a scan), and the pinhole aperture was set to completely open to obtain a strong fluorescent signal ([Koskinen et al., 2012]; [Zheng et al., 2011]). Once a region of interest (ROI) was selected with a circle that contained the whole spine, it was bleached to establish the FRAP baseline. […]

[8] = wild-type mice, FLX 15 mg/kg for 2 weeks, KET 10 mg/kg i.p. after conditioning and 2 h before each extinction trial

Molecule | rescue of pravastatin-reduced neuronal survival [1] | effect on TRKB phosphorylation (pTRKB) by BDNF ([2]; CHOL 20 μM) | effect on TRKB phosphorylation (pTRKB) by BDNF ([2]; CHOL 50–100 μM) | TRKB interaction with PLC-γ1 [3] | immobility in the FST ([4]; TRKB.Y433F mice) | immobility in the FST ([4]; wild-type mice) | extinction of conditioned fear ([5]; TRKB.Y433F mice) | extinction of conditioned fear [5, 8] | pTRKB at Y816 [6] | fluorescence of GFP-TRKB.Y433F in dendritic spines after bleaching [7] | rescue of BDNF-induced pTRKB response under high CHOL ([2]; cholesterol 50 μM, drug 10 μM 15 min, BDNF 10 ng/ml 15 min) | extinction of conditioned fear ([5]; pravastatin-FLX co-treated mice)
CC(C)CCC[C@@H](C)[C@H]1CC[C@H]2[C@@H]3CC=C4C[C@@H](O)CC[C@]4(C)[C@H]3CC[C@]12C [CHOL, cholesterol] | rescued | enhanced TRKB phosphorylation | suppressed the effects of BDNF | – | – | – | – | – | – | – | – | –
CNC1(c2ccccc2Cl)CCCCC1=O (stereo not drawn) [KET, ketamine] | – | – | – | increased TRKB interaction with PLC-γ1 | ineffective | significantly reduced immobility | no increase in fear extinction | promoted extinction of conditioned fear | enhanced pTRKB at Y816 | Neither BDNF, FLX, nor KET increased the fluorescence | – | –
CNCCC(Oc1ccc(C(F)(F)F)cc1)c1ccccc1 (stereo not drawn) [FLX, fluoxetine] | – | – | – | increased TRKB interaction with PLC-γ1 | ineffective | significantly reduced immobility | no increase in fear extinction | promoted extinction of conditioned fear | enhanced pTRKB at Y816 | Neither BDNF, FLX, nor KET increased the fluorescence | partially rescued | no increase in fear extinction
BDNF: brain-derived neurotrophic factor, TRKB ligand (protein, UniProt P23560 19-247, looked up) Neurotrophic factor BDNF …: APMKEANIRGQGGLAYPGVRTHGTLESVNGPKAGSRGLTSLADTFEHVIEELLDEDQKVRPNEENNKDADLYTSRVMLSSQVPLEPPLLFLLEEYKNYLDAANMSMRVRRHSDPARRGELSVCDSISEWVTAADKKTAVDMSGGTVTVLEKVPVSKGQLKQYFYETKCNPMGYTKEGCRGIDKRHWNSQCRTTQSYVRALTMDSKKRIGWRFIRIDTSCVCTLTIKRGR | not by BDNF | – | – | – | – | – | – | – | – | Neither BDNF, FLX, nor KET increased the fluorescence | – | –
